pIC50: −log10 of the molar value. Like-named read-outs stand apart in the source and are kept apart here. Values belong to the compound of their own block, whether it stands above or below them.
Biological target: T1, glutathione S-transferase (GST)-fused full-length human Syk protein (Homo sapiens, UniProt P43405)
T1 construct: (GST)-fused full-length human Syk protein; GST (glutathione S-transferase); purchased Carna Biosciences
Assay: Syk enzyme assay
Format: biochemical
Method in brief: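 IC50 values come from a time-resolved FRET readout (615 and 665 nm) of substrate phosphorylation, measured after an EDTA stop and 1 h antibody binding. The kinase reaction ran 40 min at room temperature with 27 μM ATP and 0.4 μM biotin-peptide, following a 15 min compound preincubation with baculovirus-made GST-full-length human Syk.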

[1] = Syk enzyme assay, Test Example 1, read-out: IC50 of Syk-inhibitory activity
[2] = read-out: Syk-inhibitory activity (IC50)

Structure (SMILES): NC(=O)c1cc(F)c(N[C@@H]2CCCC[C@@H]2N)nc1Nc1cnc(N2CCOCC2)c(-n2ccnn2)c1 [Example 006-534, 6-(((1R,2S)-2-aminocyclohexyl)amino)-5-fluoro-2-((6-morpholino-5-(1H-1,2,3-triazol-1-yl)pyridin-3-yl)amino)nicotinamide]
- pIC50 [1]: 6.00 to 7.00

Structure (SMILES): NC(=O)c1cc(F)c(N[C@@H]2CCCC[C@@H]2N)nc1Nc1ccc(-n2ccnc2)nc1 [Example 006-535, 2-((6-(1H-imidazole-1-yl)pyridin-3-yl)amino)-6-(((1R,2S)-2-aminocyclohexyl)amino)-5-fluoronicotinamide]
- pIC50 [1]: 7.00 to 7.30

Structure (SMILES): Cc1nccn1-c1ccc(Nc2nc(N[C@@H]3CCCC[C@@H]3N)c(F)cc2C(N)=O)cn1 [Example 006-536, 6-(((1R,2S)-2-aminocyclohexyl)amino)-5-fluoro-2-((6-(2-methyl-1H-imidazol-1-yl)pyridin-3-yl)amino)nicotinamide]
- pIC50 [1]: 6.00 to 7.00

Structure (SMILES): CCc1nn(C)c2ccc(Nc3nc(N[C@H](CC(C)C)[C@H](C)N)c(F)cc3C(N)=O)cc12 [Example 006-538, 6-(((2S,3R)-2-amino-5-methylhexan-3-yl)amino)-2-((3-ethyl-1-methyl-1H-indazol-5-yl)amino)-5-fluoronicotinamide]
- pIC50 [1]: > 8.00

Structure (SMILES): CCc1nn(CC)c2ccc(Nc3nc(N[C@H](CC(C)C)[C@H](C)N)c(F)cc3C(N)=O)cc12 [Example 006-540, 6-(((2S,3R)-2-amino-5-methylhexan-3-yl)amino)-2-((1,3-diethyl-1H-indazol-5-yl)amino)-5-fluoronicotinamide]
- pIC50 [1]: > 8.00

Structure (SMILES): CC(C)C[C@@H](Nc1nc(Nc2ccc3c(c2)c(C(C)C)nn3C)c(C(N)=O)cc1F)[C@H](C)N [Example 006-542, 6-(((2S,3R)-2-amino-5-methylhexan-3-yl)amino)-5-fluoro-2-((3-isopropyl-1-methyl-1H-indazol-5-yl)amino)nicotinamide]
- pIC50 [1]: > 8.00

Structure (SMILES): CCn1nc(C2CC2)c2cc(Nc3nc(N[C@H](CC4CC4)[C@H](C)N)c(F)cc3C(N)=O)ccc21 [Example 006-549, 6-(((2R,3S)-3-amino-1-cyclopropylbutan-2-yl)amino)-2-((3-cyclopropyl-1-ethyl-1H-indazol-5-yl)amino)-5-fluoronicotinamide]
- pIC50 [1]: > 8.00

Structure (SMILES): Cn1nc(N2CCOCC2)c2cc(Nc3nc(N[C@@H]4CCCC[C@@H]4N)c(F)cc3C(N)=O)ccc21 [Example 006-560, 6-(((1R,2S)-2-aminocyclohexyl)amino)-5-fluoro-2-((1-methyl-3-morpholino-1H-indazol-5-yl)amino)nicotinamide]
- pIC50 [1]: 7.30 to 8.00

Structure (SMILES): C[C@H](N)[C@@H](CC1CC1)Nc1nc(Nc2ccc3c(c2)c(N2CCOCC2)nn3C)c(C(N)=O)cc1F [Example 006-561, 6-(((2R,3S)-3-amino-1-cyclopropylbutan-2-yl)amino)-5-fluoro-2-((1-methyl-3-morpholino-1H-indazol-5-yl)amino)nicotinamide]
- pIC50 [1]: > 8.00

Structure (SMILES): CC(C)C[C@@H](Nc1nc(Nc2ccc3c(c2)c(N2CCOCC2)nn3C)c(C(N)=O)cc1F)[C@H](C)N [Example 006-562, 6-(((2S,3R)-2-amino-5-methylhexan-3-yl)amino)-5-fluoro-2-((1-methyl-3-morpholino-1H-indazol-5-yl)amino)nicotinamide]
- pIC50 [1]: > 8.00

Structure (SMILES): COCCOc1ncc(Nc2nc(N[C@@H]3CCCC[C@@H]3N)c(F)cc2C(N)=O)cc1N1CCOCC1 [Example 006-566, 6-(((1R,2S)-2-aminocyclohexyl)amino)-5-fluoro-2-((6-(2-methoxyethoxy)-5-morpholinopyridin-3-yl)amino)nicotinamide]
- pIC50 [1]: 6.00 to 7.00

Structure (SMILES): Cc1ncc(Nc2nc(N[C@@H]3CCCC[C@@H]3N)c(F)cc2C(N)=O)cc1Cl [Example 006-567, 6-(((1R,2S)-2-aminocyclohexyl)amino)-2-((5-chloro-6-methylpyridin-3-yl)amino)-5-fluoronicotinamide]
- pIC50 [1]: 7.30 to 8.00

Structure (SMILES): CCc1ncc(Nc2nc(N[C@@H]3CCCC[C@@H]3N)c(F)cc2C(N)=O)cc1Cl [Example 006-568, 6-(((1R,2S)-2-aminocyclohexyl)amino)-2-((5-chloro-6-ethylpyridin-3-yl)amino)-5-fluoronicotinamide]
- pIC50 [1]: 7.00 to 7.30

Structure (SMILES): NC(=O)c1cc(F)c(N[C@@H]2CCCC[C@@H]2N)nc1Nc1cnc(C2CC2)c(Cl)c1 [Example 006-569, 6-(((1R,2S)-2-aminocyclohexyl)amino)-2-((5-chloro-6-cyclopropylpyridin-3-yl)amino)-5-fluoronicotinamide]
- pIC50 [1]: 7.30 to 8.00

Structure (SMILES): CCOc1ncc(Nc2nc(N[C@@H]3CCCC[C@@H]3N)c(F)cc2C(N)=O)cc1Cl [Example 006-570, 6-(((1R,2S)-2-aminocyclohexyl)amino)-2-((5-chloro-6-ethoxypyridin-3-yl)amino)-5-fluoronicotinamide]
- pIC50 [1]: 7.30 to 8.00

Structure (SMILES): COCCOc1ncc(Nc2nc(N[C@@H]3CCCC[C@@H]3N)c(F)cc2C(N)=O)cc1Cl [Example 006-571, 6-(((1R,2S)-2-aminocyclohexyl)amino)-2-((5-chloro-6-(2-methoxyethoxy)pyridin-3-yl)amino)-5-fluoronicotinamide]
- pIC50 [1]: 7.00 to 7.30

Structure (SMILES): CCOc1ncc(Nc2nc(N[C@@H]3CCCC[C@@H]3N)c(F)cc2C(N)=O)cc1C1CC1 [Example 006-573, 6-(((1R,2S)-2-aminocyclohexyl)amino)-2-((5-cyclopropyl-6-ethoxypyridin-3-yl)amino)-5-fluoronicotinamide]
- pIC50 [1]: 7.30 to 8.00

Structure (SMILES): COCCOc1ncc(Nc2nc(N[C@@H]3CCCC[C@@H]3N)c(F)cc2C(N)=O)cc1C1CC1 [Example 006-574, 6-(((1R,2S)-2-aminocyclohexyl)amino)-2-((5-cyclopropyl-6-(2-methoxyethoxy)pyridin-3-yl)amino)-5-fluoronicotinamide]
- pIC50 [1]: 7.30 to 8.00

Structure (SMILES): Cc1nn(C)c2ccc(Nc3nc(N[C@H](C4CC4)[C@H](C)N)c(F)cc3C(N)=O)cc12 [Example 006-582, 6-(((1R,2S)-2-amino-1-cyclopropylpropyl)amino)-2-((1,3-dimethyl-1H-indazol-5-yl)amino)-5-fluoronicotinamide]
- pIC50 [1]: > 8.00

Structure (SMILES): Cn1nc(-n2cccn2)c2cc(Nc3nc(N[C@@H]4CCCC[C@@H]4N)c(F)cc3C(N)=O)ccc21 [Example 006-594, 6-(((1R,2S)-2-aminocyclohexyl)amino)-5-fluoro-2-((1-methyl-3-(1H-pyrazol-1-yl)-1H-indazol-5-yl)amino)nicotinamide]
- pIC50 [1]: > 8.00

Structure (SMILES): CC(C)C[C@@H](Nc1nc(Nc2ccc3c(c2)c(-n2cccn2)nn3C)c(C(N)=O)cc1F)[C@H](C)N [Example 006-595, 6-(((2S,3R)-2-amino-5-methylhexan-3-yl)amino)-5-fluoro-2-((1-methyl-3-(1H-pyrazol-1-yl)-1H-indazol-5-yl)amino)nicotinamide]
- pIC50 [1]: > 8.00

Structure (SMILES): Cc1cc(C)cc(Nc2nc(NCCN)c(F)cc2C(N)=O)c1 [Example 8-2, 6-((2-aminoethyl)amino)-2-((3,5-dimethylphenyl)amino)-5-fluoro-nicotinamide]
- pIC50 [2]: ≥ 6.00

Structure (SMILES): Cc1cc(C)cc(Nc2nc(NCCN)c(F)cc2C(N)=O)c1 [Example 008-002]
- pIC50 [1]: 7.30 to 8.00

Structure (SMILES): Cc1ccccc1Nc1nc(NCCN)c(F)cc1C(N)=O [Example 008-003]
- pIC50 [1]: 6.00 to 7.00

Structure (SMILES): NC(=O)c1cc(F)c(NC2CCCCC2N)nc1Nc1cnc2ccccc2c1 (stereo not shown) [Example 008-004]
- pIC50 [1]: > 8.00

Structure (SMILES): NC(=O)c1cc(F)c(NC2CCCCC2N)nc1Nc1cccc(Cl)c1 (stereo not shown) [Example 008-008]
- pIC50 [1]: > 8.00

Structure (SMILES): NC(=O)c1cc(F)c(N[C@H](Cc2ccccc2)C(N)=O)nc1Nc1cnc2ccccc2c1 [Example 12-25]
- pIC50 [2]: ≥ 6.00

Structure (SMILES): NC(=O)c1cc(F)c(NCc2cnn[nH]2)nc1Nc1ccc2ncccc2c1 [Example 12-27, 5-fluoro-2-(quinolin-6-ylamino)-6-(((1H-1,2,3-triazol-5-yl)methyl)amino)nicotinamide]
- pIC50 [2]: ≥ 6.00

Now from value to compound:

- pIC50 [1]: 6.00 to 7.00
Structure (SMILES): NC(=O)c1cc(F)c(NCc2ccc[nH]2)nc1Nc1ccc2ncccc2c1 [Example 012-003]

- pIC50 [1]: 7.30 to 8.00
Structure (SMILES): NC(=O)c1cc(F)c(N[C@@H](C(N)=O)c2ccccc2)nc1Nc1ccc2ncsc2c1 [Example 012-004]

- pIC50 [1]: 7.30 to 8.00
Structure (SMILES): NC(=O)c1cc(F)c(NC(Cc2ccccc2)C(N)=O)nc1Nc1ccc2ncsc2c1 (stereo not shown) [Example 012-006]

- pIC50 [1]: 7.30 to 8.00
Structure (SMILES): NC(=O)c1cc(F)c(N[C@H](Cc2ccccc2)C(N)=O)nc1Nc1ccc2ncccc2c1 [Example 012-012]

- pIC50 [1]: 6.00 to 7.00
Structure (SMILES): NC(=O)c1cc(F)c(NCCc2cnc[nH]2)nc1Nc1ccc2ncccc2c1 [Example 012-014]

- pIC50 [1]: 7.00 to 7.30
Structure (SMILES): NC(=O)c1cc(F)c(NCc2cnc[nH]2)nc1Nc1ccc2ncccc2c1 [Example 012-015]

- pIC50 [1]: 6.00 to 7.00
Structure (SMILES): NC(=O)c1cc(F)c(NCc2ccccn2)nc1Nc1ccc2ncccc2c1 [Example 012-016]

- pIC50 [1]: 6.00 to 7.00
Structure (SMILES): NC(=O)c1cc(F)c(NCc2cccnc2)nc1Nc1ccc2ncccc2c1 [Example 012-017]

- pIC50 [1]: 6.00 to 7.00
Structure (SMILES): NC(=O)c1cc(F)c(NCc2ccncc2)nc1Nc1ccc2ncccc2c1 [Example 012-018]

- pIC50 [1]: 7.00 to 7.30
Structure (SMILES): NC(=O)CNc1nc(Nc2ccc3ncccc3c2)c(C(N)=O)cc1F [Example 012-019]

- pIC50 [1]: 6.00 to 7.00
Structure (SMILES): NC(=O)c1cc(F)c(NCc2cnc[nH]2)nc1Nc1cnc2ccccc2c1 [Example 012-020]

- pIC50 [1]: > 8.00
Structure (SMILES): NC(=O)c1cc(F)c(NCCO)nc1Nc1ccc2ncccc2c1 [Example 012-021]

- pIC50 [1]: 6.00 to 7.00
Structure (SMILES): CNc1nc(Nc2ccc3ncccc3c2)c(C(N)=O)cc1F [Example 012-022]

- pIC50 [1]: 6.00 to 7.00
Structure (SMILES): NC(=O)c1cc(F)c(N[C@@H](CO)Cc2ccccc2)nc1Nc1ccc2ncccc2c1 [Example 012-023]

- pIC50 [1]: 6.00 to 7.00
Structure (SMILES): NC(=O)c1cc(F)c(N[C@@H](CO)c2ccccc2)nc1Nc1ccc2ncccc2c1 [Example 012-024]

- pIC50 [1]: 7.30 to 8.00
Structure (SMILES): NC(=O)c1cc(F)c(N[C@H](Cc2ccccc2)C(N)=O)nc1Nc1cnc2ccccc2c1 [Example 012-025]

- pIC50 [1]: 6.00 to 7.00
Structure (SMILES): CC(C)C[C@@H](Nc1nc(Nc2ccc3ncccc3c2)c(C(N)=O)cc1F)c1nnn[nH]1 [Example 012-026]

- pIC50 [1]: 7.00 to 7.30
Structure (SMILES): NC(=O)c1cc(F)c(NCc2cnn[nH]2)nc1Nc1ccc2ncccc2c1 [Example 012-027]
